Measurements from US10913738B2 (BRISTOL-MYERS SQUIBB COMPANY, priority 2017, dated 2021).
Like-named read-outs stand apart in the source and are kept apart here.

How the values were obtained:
[1] = molecular target: T1, His-GST-TVMV-hRIPK1(1-324) (Homo sapiens, UniProt Q13546); experiment: RIPK1 HTRF Binding Assay
T1 construct: The coding region of human RIPK1(1-324) flanked by NdeI site at 5′ end; made in house; host or cells: Spodoptera frugiperda (Sf9) insect cells, baculovirus
T1 sequence (Q13546 1-324): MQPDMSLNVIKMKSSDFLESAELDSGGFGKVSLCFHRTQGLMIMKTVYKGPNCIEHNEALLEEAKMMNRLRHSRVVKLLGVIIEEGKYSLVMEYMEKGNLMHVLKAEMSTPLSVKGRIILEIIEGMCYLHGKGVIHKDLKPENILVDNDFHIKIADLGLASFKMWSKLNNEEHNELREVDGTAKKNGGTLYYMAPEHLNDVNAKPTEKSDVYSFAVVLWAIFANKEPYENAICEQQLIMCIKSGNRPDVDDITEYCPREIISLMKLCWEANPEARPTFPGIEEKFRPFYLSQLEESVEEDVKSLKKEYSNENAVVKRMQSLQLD

[2] = tested on: MLKL phosphorylation in HT29-L23 human colorectal adenocarcinoma cells; experiment: MLKL Phosphorylation High-Content Assay; format: cell-based
Summary of the method: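 Cells incubated six hours at 37° C., then phospho-MLKL (S358) immunostained overnight at 4° C. and imaged by high-content microscopy. Phosphorylation quantified as mean circ-ring average intensity ratio; IC50 and Ymax from 4-parameter logistic fits.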

[3] = x marks IC50 class >200 nM, read-out: RIPK1 HTRF binding >200 nM
[4] = Homo sapiens, x marks IC50 class >200 nM, read-out: pMLKL cell activity >200 nM
[5] = x marks IC50 class 20-200 nM, read-out: RIPK1 HTRF binding 20-200 nM
[6] = x marks IC50 class <20 nM, read-out: RIPK1 HTRF binding <20 nM
[7] = Homo sapiens, x marks IC50 class <20 nM, read-out: pMLKL cell activity <20 nM
[8] = Homo sapiens, x marks IC50 class 20-200 nM, read-out: pMLKL cell activity 20-200 nM

Compound: [2H]C([2H])([2H])Oc1nc(C)c(-c2ccn3nc(N)nc3c2)cc1C(=O)NC(C)c1ccccc1OC(F)(F)F (single isomer, unassigned) [Example 98-1, 5-{2-amino-[1,2,4]triazolo[1,5-a]pyridin-7-yl}-2-(deutero)methoxy-6-methyl-N-{1-[2-(trifluoromethoxy)phenyl]ethyl}pyridine-3-carboxamide]
- IC50 [1, 3]: > 200 nM
- IC50 [2, 4]: > 200 nM

Compound: COc1ncc(-c2ccn3nc(N)nc3c2)cc1C(=O)N1CCCC(C(O)c2ccc(F)cc2)C1 (mixture of isomers) [Example 422, (5-(2-amino-[1,2,4]triazolo[1,5-a]pyridin-7-yl)-2-methoxypyridin-3-yl)(3-((4-fluorophenyl)(hydroxy)methyl)piperidin-1-yl)methanone]
- IC50 [1, 3]: > 200 nM
- IC50 [2, 4]: > 200 nM

Compound: COc1nnc(-c2ccn3nc(N)nc3c2)cc1C(=O)NCCC(C)c1ccccc1 (centres unmarked) [Example 387, 6-(2-amino-[1,2,4]triazolo[1,5-a]pyridin-7-yl)-3-methoxy-N-(3-phenylbutyl)pyridazine-4-carboxamide]
- IC50 [1, 5]: 20 to 200 nM
- IC50 [2, 4]: > 200 nM

Compound: Cc1ncc(-c2ccn3nc(N)nc3c2)cc1C(=O)NCc1ccccc1OCC1CCC1 [Example 248, 5-{2-amino-[1,2,4]triazolo[1,5-a]pyridin-7-yl}-N-{[2-(cyclobutylmethoxy)phenyl]methyl}-2-methylpyridine-3-carboxamide]
- IC50 [1, 6]: < 20 nM
- IC50 [2, 7]: < 20 nM

Compound: COc1ncc(-c2ccn3nc(N)nc3c2)cc1C(=O)NCc1cc(F)ccc1OC(C)C [Example 31, 5-{2-Amino-[1,2,4]triazolo[1,5-a]pyridin-7-yl}-N-{[5-fluoro-2-(propan-2-yloxy)phenyl]methyl}-2-methoxypyridine-3-carboxamide]
- IC50 [1, 6]: < 20 nM
- IC50 [2, 8]: 20 to 200 nM

Compound: COc1ncc(-c2ccn3nc(N)nc3c2)cc1C(=O)NCc1cc(F)cc(F)c1OC1CC1 [Example 344, 5-(2-amino-[1,2,4]triazolo[1,5-a]pyridin-7-yl)-N-(2-cyclopropoxy-3,5-difluorobenzyl)-2-methoxynicotinamide]
- IC50 [1, 6]: < 20 nM
- IC50 [2, 8]: 20 to 200 nM

Compound: COc1ncc(-c2ccn3nc(N)nc3c2)cc1C(=O)NCc1ccccc1OC1CCOCC1 [Example 115, 5-{2-amino-[1,2,4]triazolo[1,5-a]pyridin-7-yl}-2-methoxy-N-{[2-(oxan-4-yloxy)phenyl]methyl}pyridine-3-carboxamide]
- IC50 [1, 6]: < 20 nM
- IC50 [2, 7]: < 20 nM

Compound: 5-(2-amino-[1,2,4]triazolo[1,5-a]pyridin-7-yl)-6-chloro-N-(2-flouro-5-(trifluoromethoxy)benzyl)nicotinamide [Example 373]
- IC50 [1, 6]: < 20 nM
- IC50 ([2]; x marks IC50 class >200 nM, read-out: pMLKL cell activity >200 nM): > 200 nM

Compound: Nc1nc2cc(-c3cnc(Cl)c(C(=O)NCc4ccccc4OC(F)(F)F)c3)ccn2n1 [Example 168, 5-{2-amino-[1,2,4]triazolo[1,5-a]pyridin-7-yl}-2-chloro-N-{[2-(trifluoromethoxy)phenyl]methyl}pyridine-3-carboxamide]
- IC50 [1, 5]: 20 to 200 nM
- IC50 [2, 4]: > 200 nM

Compound: COc1ncc(-c2ccn3nc(N)nc3c2)cc1C(=O)NCc1ccccc1S(=O)(=O)C(C)C [Example 104, 5-{2-amino-[1,2,4]triazolo[1,5-a]pyridin-7-yl}-2-methoxy-N-{[2-(propane-2-sulfonyl)phenyl]methyl}pyridine-3-carboxamide]
- IC50 [1, 6]: < 20 nM
- IC50 [2, 4]: > 200 nM

Compound: COc1nc(C)c(-c2ccn3nc(N)nc3c2)cc1C(=O)NCc1ncccc1OCC1CCCC1 [Example 203, 5-{2-amino-[1,2,4]triazolo[1,5-a]pyridine-7-yl}-N-{[3-(cyclopentylmethoxy)pyridin-2-yl]methyl}-2-methoxy-6-methylpyridine-3-carboxamide]
- IC50 [1, 6]: < 20 nM
- IC50 [2, 8]: 20 to 200 nM

Compound: Cc1ncc(C(=O)NCc2c(F)cc(F)cc2OCC2CCCC2)cc1-c1ccn2nc(N)nc2c1 [Example 257, 5-{2-amino-[1,2,4]triazolo[1,5-a]pyridin-7-yl}-N{[2-(cyclopentylmethoxy)-4,6-difluorophenyl]methyl}-6-methylpyridine-3-carboxamide]
- IC50 [1, 5]: 20 to 200 nM
- IC50 [2, 4]: > 200 nM

Compound: Cc1cnc(-c2ccn3nc(N)nc3c2)nc1C(=O)N[C@H](C)c1cc(C(F)(F)F)ccc1F [Example 409, (R)-2-(2-amino-[1,2,4]triazolo[1,5-a]pyridin-7-yl)-N-(1-(2-fluoro-5-(trifluoromethyl)phenyl)ethyl)-5-methylpyrimidine-4-carboxamide]
- IC50 [1, 5]: 20 to 200 nM
- IC50 [2, 8]: 20 to 200 nM

Compound: CCOc1ncc(-c2ccn3nc(N)nc3c2)cc1C(=O)NCc1ccccc1OC(F)F [Example 271, 5-{2-amino-[1,2,4]triazolo[1,5-a]pyridin-7-yl}-N-{[2-(difluoromethoxy)phenyl]methyl}-2-ethoxypyridine-3-carboxamide]
- IC50 [1, 5]: 20 to 200 nM
- IC50 [2, 4]: > 200 nM

Compound: COc1ncc(-c2ccn3nc(N)nc3c2)cc1C(=O)NCc1ccccc1OC(F)(F)C(F)F [Example 150, 5-{2-amino-[1,2,4]triazolo[1,5-a]pyridin-7-yl}-2-methoxy-N-{[2-(1,1,2,2-tetrafluoroethoxy)phenyl]methyl}pyridine-3-carboxamide]
- IC50 [1, 6]: < 20 nM
- IC50 [2, 8]: 20 to 200 nM

Compound: COc1nc(C)c(-c2ccn3nc(N)nc3c2)cc1C(=O)NCc1ccccc1OC1CCOC1 (centres unmarked) [Example 6, 5-{2-Amino-[1,2,4]triazolo[1,5-a]pyridin-7-yl}-2-methoxy-6-methyl-N-{[2-(oxolan-3-yloxy)phenyl]methyl}pyridine-3-carboxamide]
- IC50 [1, 6]: < 20 nM
- IC50 [2, 7]: < 20 nM

Compound: COc1nc(C)c(-c2ccn3nc(N)nc3c2)cc1C(=O)NCc1cccc(OCC(F)(F)F)c1 [Example 334, 5-(2-amino-[1,2,4]triazolo[1,5-a]pyridin-7-yl)-2-methoxy-6-methyl-N-(3-(2,2,2-trifluoroethoxy)benzyl)nicotinamide]
- IC50 [1, 6]: < 20 nM
- IC50 [2, 8]: 20 to 200 nM

Compound: [2H]C([2H])([2H])Oc1ncc(-c2ccn3nc(N)nc3c2)cc1C(=O)NCc1cc(OC(F)(F)F)ccc1F [Example 92, 5-{2-amino-[1,2,4]triazolo[1,5-a]pyridin-7-yl}-N-{[2-fluoro-5-(trifluoromethoxy)phenyl]methyl}-2-(deutero)methoxypyridine-3-carboxamide]
- IC50 [1, 6]: < 20 nM
- IC50 [2, 7]: < 20 nM

Compound: Cc1ncc(-c2ccn3nc(N)nc3c2)cc1C(=O)NCC(C)(O)Cc1ccc(F)cc1 (centres unmarked) [Example 421, 5-(2-amino-[1,2,4]triazolo[1,5-a]pyridin-7-yl)-N-(3-(4-fluorophenyl)-2-hydroxy-2-methylpropyl)-2-methylnicotinamide]
- IC50 [1, 5]: 20 to 200 nM
- IC50 [2, 4]: > 200 nM

Compound: COc1nc(C)c(-c2ccn3nc(N)nc3c2)cc1C(=O)NCc1cc(F)cc(F)c1OCC1CCCC1 [Example 208, 5-{2-amino-[1,2,4]triazolo[1,5-a]pyridin-7-yl}-N-{[2-(cyclopentylmethoxy)-3,5-difluorophenyl]methyl}-2-methoxy-6-methylpyridine-3-carboxamide]
- IC50 [1, 6]: < 20 nM
- IC50 [2, 8]: 20 to 200 nM

Compound: Cc1ncc(-c2ccn3nc(N)nc3c2)cc1C(=O)NCc1c(F)cc(F)cc1OCC1CCCC1 [Example 228]
- IC50 [1, 6]: < 20 nM
- IC50 [2, 8]: 20 to 200 nM

Compound: Cc1ncc(-c2ccn3nc(N)nc3c2)cc1C(=O)NCc1ccccc1OC1CCOCC1 [Example 5, 5-{2-Amino-[1,2,4]triazolo[1,5-a]pyridin-7-yl}-2-methyl-N-{[2-(oxan-4-yloxy)phenyl]methyl}pyridine-3-carboxamide]
- IC50 [1, 6]: < 20 nM
- IC50 [2, 8]: 20 to 200 nM
